Article PMC2628638, “Catalytic inhibition of topoisomerase II by a novel rationally designed ATP-competitive purine analogue” (BMC Chemical Biology, 2009)

Tests used:
[1] = test system: topoisomerase II from nuclear extracts of HL-60 cells; assay: DNA decatenation assay with HL-60 nuclear extracts (kDNA); type: biochemical, human; settings: catenated kDNA, 450 μM ATP, read-out: mean IC50, inhibition of DNA decatenation
Protocol: Reagents for the assay were purchased from TopoGEN (catalog number 1001–1, TopoGEN, Inc., Port Orange, FL). Topoisomerase II was extracted according to the manufacturer's instructions from nuclei of HL-60 cells (ATCC; American Type Culture Collection, Manassas, Virginia, USA) and contained both isoforms as assessed by Western blotting. Calculation of specific topoisomerase II decatenation activity was based on complete decatenation of a given amount of catenated input DNA (100 ng kDNA) by a defined amount of nuclear extract containing the alpha and beta isoforms or of a defined amount of purified enzyme in a particular amount of time. The topoisomerase II activity from nuclei decatenated 0.07 ng catenated kDNA · min^-1 · ng^-1 extract. Purified topoisomerase II alpha (see above) decatenated 0.13 ng catenated kDNA · min^-1 · ng^-1. Vehicle (DMSO) or drug substance at concentrations to yield the desired end concentrations were added and samples were preincubated for 5 minutes at 37°C and 400 rpm in an Eppendorf thermomixer. Reactions were started by adding ATP (to 450 μM final concentration) to each sample and incubation was continued for 20 minutes. […] Gels were analyzed under a UV transilluminator and decatenated kDNA products were quantified using AlphaEaseFC (FluorChem 8900) image analysis software version 3.2.3 (Alpha Innotech, San Leandro, CA).

topoisomerase II alpha = topoisomerase II alpha (Homo sapiens, UniProt P11388); assay: Affinity precipitation with biotinylated purine analogue 2 from HL-60 nuclear extracts; type: binding; parameters: endogenous in cells; host or cells: HL-60 nuclear extract; settings: 1 μM biotinylated analogue 2; competitor in excess (10 μM), QAP 1 also at equimolar concentration
Protocol: Topoisomerase II α and β were affinity precipitated with biotinylated inhibitor as follows. Exponentially growing HL-60 cells were collected on ice and incubated with hypotonic buffer (10 mM HEPES pH 7.5, 1.5 mM MgCl2, 10 mM KCl, 0.5 mM DTT, 0.5 mM PMSF, 1× protease inhibitor cocktail (Complete Mini, Roche Diagnostics GmbH)) for 15 minutes, then 0.6% v/v NP-40 was added and cells were disrupted using a Dounce homogenizer. Lysates were transferred to 1.5 ml Protein LoBind Eppendorf tubes and nuclei were collected after centrifugation at 8000 rpm for 10 minutes and washed twice with hypotonic buffer. To extract and release chromatin associated topoisomerase II nuclei were incubated for 30 minutes in DNAse buffer (20 mM Tris HCl pH 7.5, 5 mM MgCl2, 1 mM CaCl2, 25 mM NaCl, 0.5 mM EDTA, 1% NP-40, 1 mM DTT, 1 × protease inhibitor cocktail, 0.1 mM PMSF) containing 40 U DNAse I (Roche Diagnostics GmbH) followed by addition of twice concentrated nuclear extraction buffer (20 mM HEPES pH 7.5, 3 mM MgCl2, 20 mM KCl, 50 mM β-glycerophosphate, 840 mM NaCl, 1 mM EDTA, 50 mM PNPP, 1 mM DTT, 1 mM PMSF) and rotation for 1 h in the coldroom. The soluble fraction was obtained following centrifugation at 13000 rpm for 15 minutes. 25 μg nuclear extract were used for the affinity precipitation. The salt concentration was adjusted to 150 mM with nuclear extraction buffer (without NaCl) and the sample volume was toped off to 200 μl with precipitation buffer (50 mM HEPES pH 7.4, 150 mM NaCl, 25 mM β-glycerophosphate, 25 mM NaF, 5 mM EGTA, 1 mM EDTA, 15 mM PPI, 1 mM PMSF). Compounds were preincubated for 30 minutes prior addition of biotinylated purine analogue 2 for 2 h. Streptavidin agarose beads (Novagen, 69203) were washed twice with PBS, blocked for 30 minutes with PBS containing 1% BSA, washed twice with PBS and finally with precipitation buffer. 40 μl equilibrated streptavidin agarose beads were added to the sample and incubation was continued for 1 h. Beads were pelleted by centrifugation at 7000 rpm for 5 minutes and washed thrice with precipitation buffer. During the last wash the beads were transferred to a new tube and the bound fraction was released by boiling for 5 minutes in Laemmli sample buffer. Topoisomerase II α and β were detected by Western blot as described below.

Chain of topoisomerase II alpha (P11388 whole entry): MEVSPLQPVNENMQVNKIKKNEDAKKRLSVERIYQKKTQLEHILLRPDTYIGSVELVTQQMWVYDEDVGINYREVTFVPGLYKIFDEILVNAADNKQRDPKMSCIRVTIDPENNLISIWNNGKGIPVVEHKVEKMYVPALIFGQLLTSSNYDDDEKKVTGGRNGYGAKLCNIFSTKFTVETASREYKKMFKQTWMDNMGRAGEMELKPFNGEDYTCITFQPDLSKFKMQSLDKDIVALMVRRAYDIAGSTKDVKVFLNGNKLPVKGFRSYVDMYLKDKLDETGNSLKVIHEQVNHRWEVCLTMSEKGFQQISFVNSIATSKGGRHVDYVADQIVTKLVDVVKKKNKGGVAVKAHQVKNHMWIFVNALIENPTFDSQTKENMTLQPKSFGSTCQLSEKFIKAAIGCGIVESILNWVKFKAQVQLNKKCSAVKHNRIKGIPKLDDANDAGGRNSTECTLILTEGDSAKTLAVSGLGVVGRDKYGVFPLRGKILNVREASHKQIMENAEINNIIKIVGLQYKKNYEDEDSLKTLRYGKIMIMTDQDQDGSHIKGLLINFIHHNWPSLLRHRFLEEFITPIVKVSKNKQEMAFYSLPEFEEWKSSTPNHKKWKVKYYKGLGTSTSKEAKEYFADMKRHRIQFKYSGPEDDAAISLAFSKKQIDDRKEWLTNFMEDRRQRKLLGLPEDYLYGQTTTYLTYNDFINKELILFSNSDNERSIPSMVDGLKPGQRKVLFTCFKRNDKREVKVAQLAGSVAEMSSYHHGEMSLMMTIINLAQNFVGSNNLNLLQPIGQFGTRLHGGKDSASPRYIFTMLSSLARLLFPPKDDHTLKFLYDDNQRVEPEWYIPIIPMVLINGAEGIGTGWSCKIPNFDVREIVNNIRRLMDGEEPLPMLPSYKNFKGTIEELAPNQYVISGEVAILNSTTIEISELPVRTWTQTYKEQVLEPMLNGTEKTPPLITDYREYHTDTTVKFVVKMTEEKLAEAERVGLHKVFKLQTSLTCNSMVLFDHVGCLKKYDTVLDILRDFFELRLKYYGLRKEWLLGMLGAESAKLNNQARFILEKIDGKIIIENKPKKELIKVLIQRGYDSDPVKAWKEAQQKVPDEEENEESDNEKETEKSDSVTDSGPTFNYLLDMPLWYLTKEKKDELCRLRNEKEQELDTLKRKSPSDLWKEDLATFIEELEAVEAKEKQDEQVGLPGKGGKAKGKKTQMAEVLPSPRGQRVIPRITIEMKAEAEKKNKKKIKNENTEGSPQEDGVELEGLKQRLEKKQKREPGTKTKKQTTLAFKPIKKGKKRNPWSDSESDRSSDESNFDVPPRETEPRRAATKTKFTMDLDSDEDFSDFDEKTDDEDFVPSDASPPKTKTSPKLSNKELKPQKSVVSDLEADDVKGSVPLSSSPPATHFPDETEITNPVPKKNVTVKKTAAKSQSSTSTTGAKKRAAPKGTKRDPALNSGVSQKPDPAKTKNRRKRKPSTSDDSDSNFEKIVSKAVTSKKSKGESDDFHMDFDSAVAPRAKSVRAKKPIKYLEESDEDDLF

CCc1nc2nc(Nc3ccc4nc(OCCN5CCOCC5)ccc4c3)nc(NC(C)(C)C)c2[nH]1 [QAP 1] was tested, and the IC50 [1] was 770 nM and the “competition of the interaction of biotinylated purine analogue 2 with topoisomerase II alpha” value (topoisomerase II alpha) was “abolished”.
